US9822414B2, “In vitro method for predicting in vivo genotoxicity of chemical compounds” (priority 2011, dated 2017)
Values joined by “and” are separate entries in the source; they are usually repeats but may differ in a detail not shown here. Equal entries are not always repeated. “Also recorded” adds a separate entry of the source. Where two headings read alike, the source gives them in different places.

How the values were obtained:
[1] = system: HepG2 cell
[2] = system: Salmonella typhimurium; settings: cited from earlier work
[3] = system: NR0B2; assay: Gene expression of NR0B2 in HepG2 cells exposed to compound (microarray, log2 treatment:control ratio); type: cell-based, human
[4] = system: rodents; settings: cited from earlier work
[5] = system: PWWP2B; assay: Gene expression of PWWP2B in HepG2 cells exposed to compound (microarray, log2 treatment:control ratio); type: cell-based, human
[6] = system: conventional in vitro genotoxicity assays; settings: cited from earlier work
[7] = system: LOC100505880; assay: Gene expression of LOC100131914/LOC100505880 in HepG2 cells exposed to compound (microarray, log2 treatment:control ratio); type: cell-based, human
[8] = system: HepG2 cell; assay: Class prediction of in vivo genotoxicity by the method of the invention (Ames stratification plus three-gene expression in HepG2); settings: for Prediction (class prediction results using the method of the invention): 62 compounds, three replicates, HepG2 24 h
[9] = positive when at least one in vivo assay (MN, CA) positive, equivocal considered positive
[10] = HepG2, Ames positive compounds, per replicate, reference value −0.099
[11] = HepG2 cells, 24 h exposure, Ames positive compounds, one line per replicate of triplicate experiments
[12] = HepG2, Ames positive compounds, per replicate, reference value −0.071
[13] = HepG2, Ames positive compounds, per replicate, reference value −0.054
[14] = HepG2 cells, 24 h exposure, Ames positive compounds, one line per replicate of triplicate experiments, listed as Fu

Row | Structure (SMILES) | At least ⅔ genes +? [1] | Average result over three measurements [1] | Ames [2] | NR0B2 above or below the reference value [3] | Standard (in vivo genotoxicity designation) ([4]; in vivo) | Log2 treatment: control ratio PWWP2B [5] | In vitro GTX [6] | LOC100505880 above or below the reference value [7] | Prediction (class prediction results using the method of the invention) [8] | In vivo GTX [4, 9] | PWWP2B above or below the reference value [5] | other results
1 | ClCc1ccccn1 [2CMP] | NGTX | NGTX | + | − (minus sign indicates a value below the reference value) | NGTX | −0.214 and −0.23 and −0.031 | + | − (minus sign indicates a value below the reference value) | NGTX |  |  | 
2 | CC(=O)Nc1cccc2c1-c1ccccc1C2 [4AAF] |  | NGTX | + |  | NGTX |  | + | − (minus sign indicates a value below the reference value) | NGTX+ |  |  | Log2 treatment: control ratio NR0B2 [3]: −0.04 and −0.278 and −0.088; Log2 treatment: control ratio LOC100505880 [7]: −0.217 and −0.295 and −0.101
3 | Nc1ccc(-c2ccccc2)cc1 [ABP] |  |  |  | + (Plus sign indicates a value above the reference value) |  |  |  |  |  | + | + (Plus sign indicates a value above the reference value) | 
4 | COc1cc2c(c3oc(=O)c4c(c13)CCC4=O)[C@@H]1C=CO[C@@H]1O2 [AFB1] | GTX | GTX | + | + (Plus sign indicates a value above the reference value) | GTX | 0.098 and 0.275 and 0.088 | + | + (Plus sign indicates a value above the reference value) | GTX | + | + (Plus sign indicates a value above the reference value) | 
5 | Cn1cnc([N+](=O)[O-])c1Sc1ncnc2nc[nH]c12 [AZA] | GTX | GTX |  |  | GTX |  | + |  |  |  |  | Prediction (class prediction results using the method of the invention) [1]: GTX; Ames ([2]; Ames results based on NTP data): +; NR0B2 above or below the reference value [3, 10]: + (Plus sign indicates a value above the reference value); Log2 treatment: control ratio NR0B2 [3, 11]: 1.473 and 0.232 and 0.893; In vivo GTX ([4]; in vivo): +; PWWP2B above or below the reference value [5, 12]: + (Plus sign indicates a value above the reference value); Log2 treatment: control ratio PWWP2B [5, 11]: 0.536 and 0.044 and −0.035; LOC100505880 above or below the reference value [7, 13]: + (Plus sign indicates a value above the reference value); Log2 treatment: control ratio LOC100505880 [7, 11]: 1.541 and 0.022 and 1.33
6 | COc1ccc(N)cc1 [Anis] | GTX | GTX | + | + (Plus sign indicates a value above the reference value) | NGTX | 0.013 and 0.076 and 0.253 | + | + (Plus sign indicates a value above the reference value) | GTX |  | + (Plus sign indicates a value above the reference value) | Results in the conventional in vitro genotoxicity assays ([6]; see Table 5): positive results; Classification of NGTX compounds by the method of the invention (false positives) ([8]; in vivo NGTX compounds): misclassification
7 | Nc1ccc(-c2ccc(N)cc2)cc1 [BZ] | GTX | GTX | + | + (key: +: Plus sign indicates a value above the reference value; −: minus sign indicates a value below the reference value) | GTX |  | + |  |  |  |  | Prediction (class prediction results using the method of the invention) [1]: GTX; In vivo GTX ([4]; in vivo): +
8 | O=P1(N(CCCl)CCCl)NCCCO1 (centres unmarked) [CP] | GTX | GTX | + |  | GTX | 0.042 and −0.221 and 0.073 | + | + (Plus sign indicates a value above the reference value) | GTX | + |  | Log2 treatment: control ratio LOC100505880 [7]: −0.031 and −0.01 and 0.139
9 | O=C(O)CCCc1ccc(N(CCCl)CCCl)cc1 [Cb] | GTX | GTX | + | + (Plus sign indicates a value above the reference value) | GTX |  | + | + (Plus sign indicates a value above the reference value) | GTX | + |  | 
10 | Cc1c2ccccc2c(C)c2c1ccc1ccccc12 [DMBA] |  | GTX | + |  | GTX | −0.155 and 0.088 and −0.102 | + |  | GTX+ | + |  | Log2 treatment: control ratio NR0B2 [3]: 0.064 and −0.116 and −0.076; Log2 treatment: control ratio LOC100505880 [7]: 0.08 and −0.059 and −0.025
11 | CCN(N=O)C(N)=O [ENU] | GTX | GTX | + | + (Plus sign indicates a value above the reference value) | GTX | 0.01 and 0.06 and 0.11 | + |  | GTX | + | + (Plus sign indicates a value above the reference value) | 
12 | O=c1[nH]cc(F)c(=O)[nH]1 [FU] |  | NGTX |  |  | GTX |  | + |  |  |  |  | Prediction (class prediction results using the method of the invention) [1]: NGTX+; Ames ([2]; Ames results based on NTP data): +; NR0B2 above or below the reference value [3, 10]: + (Plus sign indicates a value above the reference value); also recorded: − (minus sign indicates a value below the reference value); NR0B2 above or below the reference value ([3]; HepG2, Ames positive compounds, per replicate, reference value −0.099, listed as Fu): − (minus sign indicates a value below the reference value); Log2 treatment: control ratio NR0B2 [3, 11]: 0.781 and −0.197; Log2 treatment: control ratio NR0B2 [3, 14]: −0.457; In vivo GTX ([4]; in vivo): +; PWWP2B above or below the reference value [5, 12]: + (Plus sign indicates a value above the reference value); Log2 treatment: control ratio PWWP2B [5, 11]: 0.256 and 0.175; Log2 treatment: control ratio PWWP2B [5, 14]: 0.008; LOC100505880 above or below the reference value [7, 13]: + (Plus sign indicates a value above the reference value); also recorded: − (minus sign indicates a value below the reference value); LOC100505880 above or below the reference value ([7]; HepG2, Ames positive compounds, per replicate, reference value −0.054, listed as Fu): − (minus sign indicates a value below the reference value); Log2 treatment: control ratio LOC100505880 [7, 11]: 0.583 and −0.067; Log2 treatment: control ratio LOC100505880 [7, 14]: −0.218
13 | Cn1c(N)nc2c3cccnc3ccc21 [IQ] | GTX | GTX | + |  | GTX | 0.188 and −0.003 and −0.052 | + | + (Plus sign indicates a value above the reference value) | GTX | + | + (Plus sign indicates a value above the reference value) | 
14 | Nc1ccc(Cc2ccc(N)c(Cl)c2)cc1Cl [MOCA] |  |  |  | + (Plus sign indicates a value above the reference value) | GTX |  | + |  |  | + | + (Plus sign indicates a value above the reference value) | 
15 | O=c1c(O)c(-c2ccc(O)c(O)c2)oc2cc(O)cc(O)c12 [Que] | NGTX | NGTX |  |  | NGTX |  | + |  |  |  |  | Prediction (class prediction results using the method of the invention) [1]: NGTX; Ames ([2]; Ames results based on NTP data): +; NR0B2 above or below the reference value [3, 10]: − (minus sign indicates a value below the reference value); Log2 treatment: control ratio NR0B2 [3, 11]: −0.635 and −0.69 and −3.709; In vivo GTX ([4]; in vivo): −; PWWP2B above or below the reference value [5, 12]: − (minus sign indicates a value below the reference value); Log2 treatment: control ratio PWWP2B [5, 11]: −0.206 and −0.437 and −0.113; Log2 treatment: control ratio LOC100505880 [7, 11]: 0.062 and −0.337 and −0.727
16 | COc1ccc(C)cc1N [pCres] | GTX | GTX | + | + (Plus sign indicates a value above the reference value) | GTX |  | + |  | GTX | + | + (Plus sign indicates a value above the reference value) | 
